A short description of series [1]: Solubility Characteristics of COPs. In kind it is physicochemical. The protocol: All COPs were synthesized by solid phase fmoc chemistry at research scale to allow determination of IgE binding. […] Peptides were resuspended either in water at 2 mg/ml or at 10 to 20 mg per ml in DMSO (see Table 1) and frozen in aliquots.
Series [2] deals with IgE of sera of house dust mite allergic patients binding to nDer p 1. Kind of series: Competition ELISA on Der p 1 coated plates. Further details: species or system human. As to conditions: for effect of denaturing salts on IgE binding (Der p 1 competition ELISA): denaturing salts incl. guanidinium chloride or urea, 30 min pre-incubation with 1M guanidinium chloride; for IgE binding in competition ELISA (Der p 1): sera from patients allergic to house dust mites, COPs 10^−5 to 10^−10 M. How it is done: (§1) Purified Der p 1 or Der p 2 at 1.0 μg/ml were coated overnight on 96-well Nunc Maxisorp® immunoplates (Thermo Fisher Scientific Inc., Wohlen, Switzerland). After blocking with 1% BSA, either twenty-fold, thirty-fold or forty-fold up to 200-fold dilutions of patient serum were added depending on specific IgE content. […] Sera of allergic patients were obtained from US and Europe (PlasmaLab International, Everett, Wash., USA and Biomnis, Lyon, France) respectively) selected for positive CAP for D. pteronyssinus and clear signal over background and used to test for competition with the peptides. Serial dilutions of each set of COPs, namely for Der p 1 Set A, B, C or D and for Der p 2 mixes D, E or F at concentrations ranging from 10^−5 to 10^−10 M were pre-incubated with selected serums for 15 min. on ice.
For orientation: In an ELISA, binding on a coated surface is turned into a signal by an enzyme label.

Series [3] concerns IgE of sera of house dust mite allergic patients binding to nDer p 2. Kind of series: Competition ELISA on Der p 2 coated plates. As to conditions: for IgE binding in competition ELISA (Der p 2): sera from patients allergic to house dust mites, COPs 10^−5 to 10^−10 M. On the set-up: species or system human. How it is done:
as §1

In series [4] the test system is IgE. Kind of series: Direct ELISA of Der p 2 COPs. In kind it is binding, human.
For series [5], the system named is RBL-703/21 cells transfected with human Fc epsilon RI receptor, sensitized with sera from patients with house dust mite allergy. Kind of series: RBL degranulation. It is filed as cell-based. As to conditions: RBL cells pre-loaded with 18 human serums; AllerDM up to 10^−5M. The protocol:
Degranulation assay was performed as described in [37]. RBL-703/21 cells transfected with human Fc epsilon RI receptor were plated in 96-well tissue culture plates (10^5 cells/well) overnight. Passive sensitization of RBL-703/21 cells was carried out with sera from patients with house dust mite allergy at 1:20 overnight. Unbound antibodies were removed by washing the cell layer twice in Hanks' balanced salt solution (Gibco, Life technologies) the next day. Degranulation of RBL cells was induced for 1 h at 37° C. by adding nDer p1, nDer p 2 or individual COPs and mixes at indicated concentrations diluted in Tyrode's buffer (130 mM NaCl, 5 mM KCl, 1.4 mM CaCl2, 1 mM MgCl2, 5.6 mM glucose, 10 mM HEPES pH7.4, 0.1% BSA). β-hexosaminidase activity was analyzed by incubating 30 μl of cell supernatant with 50 μl of 1.3 mg/ml 4-Nitrophenyl N-acetyl-β-D-glucosaminide (Sigma) in citrate buffer (0.1M, pH 4.5) for 1 h at 37° C. The reaction was stopped by addition of 100 μl glycine buffer (0.2M glycine, 0.2M NaCl, pH 10.7) and optical densities (OD) were measured at 405 nm.

Where two headings read alike, the source gives them in different places. Residues, ends and D or L forms follow the SMILES beside them. No end group written: not given here.

In series [1] (Solvent H2O), `CC[C@H](C)[C@H](NC(=O)[C@H](CCC(=O)O)NC(=O)[C@H](Cc1c[nH]cn1)NC(=O)[C@H](CC(N)=O)NC(=O)[C@H](C)NC(=O)[C@H](CS)NC(=O)[C@H](CC(=O)O)NC(=O)[C@H](CCCCN)NC(=O)[C@@H](NC(=O)[C@H](CC(=O)O)NC(=O)[C@@H](NC(=O)[C@H](CCC(N)=O)NC(=O)[C@@H](N)CC(=O)O)C(C)C)C(C)C)C(=O)N[C@@H](CCCCN)C(=O)N[C@@H](CCCCN)C(=O)N[C@H](C(=O)N[C@@H](CC(C)C)C(=O)N[C@H](C(=O)N1CCC[C@H]1C(=O)NCC(=O)N[C@@H](CS)C(=O)N[C@@H](Cc1c[nH]cn1)C(=O)NCC(=O)N[C@@H](CO)C(=O)N[C@@H](CCC(=O)O)C(=O)N1CCC[C@H]1C(=O)N[C@@H](CS)C(=O)N[C@H](C(=O)N[C@H](C(=O)N[C@@H](Cc1c[nH]cn1)C(=O)N[C@@H](CCCNC(=N)N)C(=O)O)[C@@H](C)CC)[C@@H](C)CC)C(C)C)C(C)C` [AllerDM2.6] (H-DQVDVKDCANHEIKKVLVPGCHGSEPCIIHR-OH; N-terminus and C-terminus assumed) yielded a Conc. of 3000 µg/mL.

In the case of “ASQHGCHGDTIPRGIEYIQHNGVVQESYYRYVAREQS [AllerDM1.53]”, in series [1], the solubility in words result is listed as “solubility in water”. For the same molecule, the Conc. in series [1] (Solvent H2O) stood at 4000 µg/mL.

In the case of “ASQHGCHGDTIPRGIEYIQHNGVVQESYYRYVAREQSCRRPNAQRFGISNYCQIYPPNVNKIRE [AllerDM1.52]”, in series [1], the Conc. worked out at 2300 µg/mL and the solubility in words result is reported as “solubility in water”. Further, in series [2], the “effect of denaturing salts on IgE binding (Der p 1 competition ELISA)” value is given as “strongly diminished IgE binding” and the “IgE binding in competition ELISA (Der p 1)” value (shortened to “IgE binding … (Der p 1)”) is “still bound IgE”.

On to “DQVDVKDCANHEIKKVLVPGCHGSEPCIIHRGKPFQLEAVFEANQNTKTAKIEIKASIDGLEVDVPGIDPNA [AllerDM2.1]”, for which the Conc. in series [1] (pH 5) worked out at 1000 µg/mL. In addition, in series [3], the “IgE binding in competition ELISA (Der p 2)” value is reported as “did not bind IgE”.

“HGSEPCIIHRGKPFQLEALFEANQNSKTAKIEIKASIDGLEVDVPGIDPNACHYMK (cysteines drawn unpaired) [AllerDM2.4]” displayed a Conc. in series [1] of 4200 µg/mL.

As for “HYMKCPLVKGQQYDIKYTWNVPKIAPKSENVVVTVKVLGDNGVLACAIATHAKIRD (cysteines drawn unpaired) [AllerDM2.5]”, the Conc. in series [1] (Solvent H2O) worked out at 1500 µg/mL.

KVLGDNGVLACAIATHAKIRD [AllerDM2.9]: the Conc. in series [1] (Solvent H2O) worked out at 1000 µg/mL.

Take “KYTWNVPKIAPKSENVVVTVKVLGDNGVLACAIATHAKIRD [AllerDM2.8]”: in series [1] (Solvent H2O), the Conc. turned out to be 3500 µg/mL.

Take “LAEQELVDCASQHGCHGDTIPRGIEYIQHNGVVQESYYRYVAREQSCRRPNAQRFGISNYCQIYPPNVNKIRE [AllerDM1.5]”: in series [1], the Conc. worked out at 1700 µg/mL and the solubility in words entry is “solubility in water”. In series [2], the “IgE binding … (Der p 1)” value is “responsible for the reactivity”.

In series [1] (Solvent H2O), “PNVNKIREALAQTHSAIAVIIGIKDLDAFRHYDGR [AllerDM1.63]” gave a Conc. of 2000 µg/mL.

In series [1], “PNVNKIREALAQTHSAIAVIIGIKDLDAFRHYDGRTIIQRDNGYQPNYHAVNIVGYSNAQGVD [AllerDM1.62]” yielded a Conc. of 2500 µg/mL. Besides, in series [2], the “effect of denaturing salts on IgE binding (Der p 1 competition ELISA)” value is “strongly diminished IgE binding” and the “IgE binding … (Der p 1)” value is on record as “residual IgE binding”.

Molecule “PNVNKIREALAQTHSAIAVIIGIKDLDAFRHYDGRTIIQRDNGYQPNYHAVNIVGYSNAQGVDYWIVRNSWDT [AllerDM1.6]” registered a Conc. in series [1] of 800 µg/mL. In series [2], the “IgE binding … (Der p 1)” value is “responsible for the reactivity”.

In series [1] (Solvent H2O), “RHYDGRTIIQRDNGYQPNYHAVNIVGYSNAQGVD [AllerDM1.64]” gave a Conc. of 4000 µg/mL.

Turning to “SEPCIIHRGKPFQLEALFEANQNSKTAKIEIKASIDGLEVDVPGIDPNACHYMKCPLVKGQQYDIKYTWNVPKIA [AllerDM2.7]”, in series [1], the Conc. turned out to be 3500 µg/mL. In addition, the “IgE binding in competition ELISA (Der p 2)” value in series [3] was “residual IgE binding”.

With “SIDGLEVDVPGIDPNACHYMKCPLVKGQQYDIKYTWNVPKIAPKSENVVVTVKVLGD (cysteines drawn unpaired) [AllerDM2.10]”, the Conc. in series [1] (H2O after acidification with HCl and neutralization with NaOH) came to 2000 µg/mL.

Take “SIDGLEVDVPGIDPNACHYMKCPLVKGQQYDIKYTWNVPKIAPKSENVVVTVKVMGDDGVLACAIATHAKIRD [AllerDM2.2]”: the “IgE binding in direct ELISA” value in series [4] is reported as “found to bind IgE”. Besides, in series [1], the Conc. worked out at 1700 µg/mL. Moreover, in series [3] (denaturing salts incl. guanidinium chloride or urea, 30 min pre-incubation with 1M guanidinium chloride), the “effect of denaturing salts on IgE binding (Der p 2 competition ELISA)” value is “strongly diminished IgE binding”.

B1: TNACSINGNAPAEIDLRQMRTVTPIRMQGGCGSCWAFSGVAATESAYLAYRNQSLDLAEQELVDCASQHG (peptide, listed as Dermatophagoides pteronyssinus)
chain: TNACSINGNAPAEIDLRQMRTVTPIRMQGGCGSCWAFSGVAATESAYLAYRNQSLDLAEQELVDCASQHG
notes: Der p 1 contiguous overlapping peptide, 70AA, T99 to G168
In series [1] (Solvent 7M guanidinium chloride), B1 yielded a Conc. of 30000 µg/mL. Further, in series [2], the “IgE binding … (Der p 1)” value is “no detectable IgE binding”.

B2: Der p 2: purified natural Der p 2 house dust mite major allergen from Indoor Biotechnologies Ltd (protein)
chain: DQVDVKDCANHEIKKVLVPGCHGSEPCIIHRGKPFQLEALFEANQNSKTAKIEIKASIDGLEVDVPGIDPNACHYMKCPLVKGQQYDIKYTWNVPKIAPKSENVVVTVKVLGDNGVLACAIATHAKIRD
As to B2, in series [5], the “basophil degranulation of RBL cells, serum panel” value is given as “able to induce degranulation”. Also, the “concentration range of competition (Der p 2 control)” value in series [3] (panel of 21 sera) is listed as 10^−7 to 10^−9 M.

B3: TNACSINGNAPAEIDLRQMRTVTPIRMQGGCGSCWAFSGVAATESAYLAYRNQSLDLAEQELVDCASQHGCHGDTIPRGIE (peptide, listed as Dermatophagoides pteronyssinus)
chain: TNACSINGNAPAEIDLRQMRTVTPIRMQGGCGSCWAFSGVAATESAYLAYRNQSLDLAEQELVDCASQHGCHGDTIPRGIE
notes: Der p 1 contiguous overlapping peptide, 81AA
In the case of B3, the Conc. in series [1] (H2O after addition of HCl and NaOH and citrate buffer pH5.5) was found to be 1000 µg/mL.

B4: AIAVIIGIKDLDAFRHYDGRTIIQRDNGYQPNYHAVNIVGYSNAQGVDYWIVRNSWDTNWGDNGYGYFAANIDLMMIEEYPYVVIL (peptide)
peptide: AIAVIIGIKDLDAFRHYDGRTIIQRDNGYQPNYHAVNIVGYSNAQGVDYWIVRNSWDTNWGDNGYGYFAANIDLMMIEEYPYVVIL
Consider B4, for which the Conc. in series [1] was 500 µg/mL. Also, in series [2], the “IgE binding … (Der p 1)” value is “Residual IgE binding was observed”.

B5: Der p 1: purified natural Der p 1 house dust mite major allergen from Indoor Biotechnologies Ltd (protein)
chain: TNACSINGNAPAEIDLRQMRTVTPIRMQGGCGSCWAFSGVAATESAYLAYRNQSLDLAEQELVDCASQHGCHGDTIPRGIEYIQHNGVVQESYYRYVAREQSCRRPNAQRFGISNYCQIYPPNVNKIREALAQTHSAIAVIIGIKDLDAFRHYDGRTIIQRDNGYQPNYHAVNIVGYSNAQGVDYWIVRNSWDTNWGDNGYGYFAANIDLMMIEEYPYVVIL
For the molecule B5, the “basophil degranulation of RBL cells, serum panel” value in series [5] is recorded as “able to induce degranulation”. Besides, in series [2] (panel of 21 sera), the “concentration range of competition (Der p 1 control)” value is given as 10^−7 to 10^−9 M.

B6: SQHGCHGDTIPRGIEYIQHNGVVQESYYRYVAREQSCRRPNAQRFGISNYCQIYPPNVNKIREALAQTHSAIAVIIGIKDLDAFRH (peptide)
peptide: SQHGCHGDTIPRGIEYIQHNGVVQESYYRYVAREQSCRRPNAQRFGISNYCQIYPPNVNKIREALAQTHSAIAVIIGIKDLDAFRH
The molecule B6 came in with a Conc. in series [1] of 2000 µg/mL. For the same molecule, the “IgE binding … (Der p 1)” value in series [2] was “Residual IgE binding was observed”.

B7: TNACSINGNAPAEIDLRQMRTVTPIRMQGGCGSCWAFSGVAATESAYLAYRNQSLDLAEQELVDCA (peptide, listed as Dermatophagoides pteronyssinus)
chain: TNACSINGNAPAEIDLRQMRTVTPIRMQGGCGSCWAFSGVAATESAYLAYRNQSLDLAEQELVDCA
notes: Der p 1 contiguous overlapping peptide, 66AA
As to B7, the “solubility remark” value in series [1] (1.2: when added to Citrate buffer or PBS at 2 × 10^−5M) was “NaOH) Difficult pH8”. Moreover, the Conc. in series [1] (H2O, pH adjusted with HCl and NaOH) stood at 1000 µg/mL. Moreover, the “IgE binding … (Der p 1)” value in series [2] is listed as “no detectable IgE binding”.

Source of the values: patent US20150050301A1, “Contiguous Overlapping Peptides for Treatment of House Dust Mites Allergy” (ANERGIS S.A., priority 2013, published 2015).
